The target in this experiment is T1, TcGPCR (G-protein-coupled neuropeptide receptor) (Tetranychus cinnabarinus, UniProt A0A2L1GE98).
T1 construct: full ORF in pcDNA3.1(+), transient expression in CHO-WTA11 cells with aequorin and Galpha16; seven TM helices, rhodopsin-like; T. urticae orthologue locus tetur02g03830
T1 sequence (A0A2L1GE98 1-513): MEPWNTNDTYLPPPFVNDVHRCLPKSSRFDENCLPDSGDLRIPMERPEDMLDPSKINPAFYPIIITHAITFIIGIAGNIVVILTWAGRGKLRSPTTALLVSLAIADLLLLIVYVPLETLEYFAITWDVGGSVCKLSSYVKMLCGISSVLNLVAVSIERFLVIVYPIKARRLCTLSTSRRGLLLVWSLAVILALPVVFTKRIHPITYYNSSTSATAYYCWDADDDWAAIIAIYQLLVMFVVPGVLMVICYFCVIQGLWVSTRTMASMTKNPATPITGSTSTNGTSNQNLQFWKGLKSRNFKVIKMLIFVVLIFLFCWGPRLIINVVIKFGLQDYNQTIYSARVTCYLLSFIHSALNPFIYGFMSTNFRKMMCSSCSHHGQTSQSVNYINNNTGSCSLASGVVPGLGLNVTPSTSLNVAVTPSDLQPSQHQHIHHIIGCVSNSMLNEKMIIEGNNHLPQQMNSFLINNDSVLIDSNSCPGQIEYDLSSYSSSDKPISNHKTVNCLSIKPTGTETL
As to the kind of experiment: aequorin luminescence calcium mobilization in transfected CHO-WTA11 cells. The experiment is classed as cell-based. From the text:
aequorin luminescence calcium mobilization in transfected CHO-WTA11 cells on TcGPCR (G-protein-coupled neuropeptide receptor) | CHO cells expressing TcGPCR was induced by scopoletin in a concentration-dependent manner
For orientation: Calcium flux is commonly read through the fluorescence of an indicator in the cells.

The values that follow come from article PMC6414448, “Acaricidal Mechanism of Scopoletin Against Tetranychus cinnabarinus” (Frontiers in Physiology, 2019).

pEC50: −log10 of the molar value.

In the case of `COc1cc2ccc(=O)oc2cc1O` [scopoletin], the pEC50 is 6.55.

The term pEC50 denotes the EC50 on a negative log10 scale, so that one unit is a factor of ten.
